Assay results as given in patent publication US20040166151A1, “Lipid-based drug delivery systems containing phospholipase A2 degradable lipid derivatives and the therapeutic uses thereof” (priority 2000, published 2004).

Key:
[1] = tested on: human red blood cells (RBC); assay: Hemolysis assay; details: low concentrations, 37° C., 20 hours
Experimental: Briefly, each sample was serially diluted with phosphate buffered saline (PBS), and 0.5 ml of each dilute suspension was mixed with 0.5 ml washed human red blood cells (RBC) [4% in PBS (v/v)]. Sample and standard were placed in a 37° C. incubator and agitated for 20 hours. Tubes were centrifuged at low speed (2000×G) for 10 minutes and 200 μl of the supernatant was quantitated by absorbance at 550 nm. 100 percent hemolysis was defined as the maximum amount of hemolysis obtained from the detergent Triton X-100.
1-O-octadecyl-2-O-methyl-sn-glycero-3-phosphocholine (ET-18-OCH3) in PBS was included in the assay as a reference.
Briefly, each sample was serially diluted with PBS, and 0.5 ml of each dilute suspension of 1-O-DPPC liposomes were mixed with 0.5 ml washed human red blood cells (RBC) [4% in PBS (v/v)]. For controls, 0.5 ml of the red blood cell suspension was mixed with either 0.5 ml buffer solution (negative hemolysis control) or 0.5 ml water (positive hemolysis control). Samples and standard were placed in a 37° C. incubator and agitated for 20 hours. Tubes were centrifuged at low speed (2000×G) for 10 minutes to form RBCs pellets. 200 μl of the supernatant was quantitated by absorbance at 550 nm using a Perkin-Elmer 320 scanning spectrophotometer. 100 percent hemolysis was defined as the maximum amount of hemolysis obtained from the detergent Triton X-100.

[2] = tested on: mice; assay: In vivo hemolysis assay; details: i.v., 50 mg/kg
Experimental: Groups of mice (n=5/group; weight 18-22 g) were treated i.v. with buffer (PBS), ET-18-OCH3 (50 mg/kg), and liposomes composed of 1-O-DPPC with 5 mol % 1-O-DPPE-PEG2000 (68.7 and 137.5 mg/kg). 30 min after injection, 100 μl blood was collected into heparinised tubes directly from decapitated, CO2-anesthetised mice. The blood was centrifuged at 500×G for 10 min, and plasma was removed and stored at −20° C. until analysed.
The degree of hemolysis was measured by absorbance at 550 nm using a Perkin-Elmer 320 scanning spectrophotometer. 25 μl plasma was mixed with 2,5 ml PBS or 2.5 ml 10% triton X-100. 100 percent hemolysis was defined as the maximum amount of hemolysis obtained from the plasma of PBS treated mice mixed with 10% Triton X-100 and 0 percent as plasma from PBS treated mice mixed with PBS.

[3] = molecular target: T1, extracellular PLA2 (Agkistrodon piscivorus piscivorus, UniProt P51972); assay: Effect of cholesterol content of liposomes on extracellular PLA2 activity; assay type: biochemical
T1 construct: Purified snake venom PLA2 (Agkistrodon piscivorus piscivorus) was a generous gift; tissue gift from dr; R. L. Biltonen; host or cells: snake venom of Agkistrodon piscivorus piscivorus
T1 sequence (P51972 1-123): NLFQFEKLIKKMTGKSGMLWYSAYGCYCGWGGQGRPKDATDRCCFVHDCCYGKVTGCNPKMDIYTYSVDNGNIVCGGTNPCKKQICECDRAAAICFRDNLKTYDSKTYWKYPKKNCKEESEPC
Source text: Short-chain phospholipids, such as didecanoyl phosphatidylcholine (DCPC), activate extracellular PLA2. The effect on calcein permeation across the target membranes induced by incorporation of a small amount of DCPC into the carrier PEG-liposomes is also shown in FIG. 12.a. […] In contrast we find that a small amount of cholesterol (≈3 mol %) activates extracellular PLA2. These significant findings are of particular interest since the blood circulation time of PEG-liposomes has been reported to be almost the same without cholesterol as with large amounts of cholesterol.

[4] = Calcein release across target membrane on adding hydrolysis products in the absence of PLA2; details: 25 μM target membranes, 39° C.
Experimental: Total release after 20 min of the fluorescent model drug calcein across the target membrane as a function of adding increasing amounts of lyso-palmitoyl phospholipid and palmitic acid, separately, and in a 1:1 mixture. The concentration of the target membranes is 25 μM in a HEPES buffer with pH=7.5 at a temperature of 39° C.
The experimental model system consists of a polymer-coated liposome carrier and a model target membrane. The carrier is a 100 nm unilamellar liposome made of dipalmitoyl phosphatidylcholine lipids (DPPC) with 2.5 mol % lipopolymer of the type dipalmitoyl phosphatidylethanolamine (DPPE)-PEG2000. The target membrane is another liposome made of 1,2-O-dioctadecyl-sn-glycero-phosphatidylcholine (D-O-SPC) which is a phospholipid where the acyl linkages of the stearoyl chains are ether bonds. In contrast to DPPC, D-O-SPC is inert towards PLA2-catalysed hydrolysis thereby mimicking the stability of an intact target cell membrane toward degradation by its own enzymes. […] The permeation of calcein across the D-O-SPC target membrane is subsequently monitored by the increase in fluorescence. […]

In the case of `CCCCCCCCCCCCCCCCCCOC[C@H](COP(=O)([O-])OCC[N+](C)(C)C)OC` [ET-18-OCH3], the “hemolysis (FIG. 6)” value [1] is reported as “significant degree of hemolysis”, the “Survival (30 min), number of surviving mice” value [2] is reported as 0/5 and the “mortality of treated mice” value [2] is reported as “died within the 30 minutes period”.
With `CC(C)CCC[C@@H](C)[C@H]1CC[C@H]2[C@@H]3CC=C4C[C@@H](O)CC[C@]4(C)[C@H]3CC[C@]12C` [cholesterol] the “extracellular PLA2 activity” value ([3]; ≈3 mol % cholesterol incorporated into liposomes) was “activates” and the “extracellular PLA2 activity” value ([3]; ≈20 mol % cholesterol incorporated into liposomes, data not shown) was “deactivated”.
With `CCCCCCCCCCCCCCCC(=O)O` [fatty acid, palmitic acid] the “rate of calcein release across the target membrane (FIG. 13)” value [4] was “increased rate”.
